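Step 1: Grow cells in 96-well plates. Step 2: Expose to compound for 48 hours at 5 concentrations. Step 3: Interpolate endpoints linearly; if unreached, use highest concentration. GI50: concentration for 50% inhibition of growth. TGI: concentration producing complete growth inhibition.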
Key:
Test in all cases: NCI tumour cell line growth inhibition, 48 h
[1] = system: COLO 205 colon
[2] = system: UACC-257 melanoma
[3] = system: BT-549 breast
[4] = system: SF-268 CNS
[5] = system: OVCAR-3 ovarian
[6] = system: HCT-116 colon
[7] = system: 786-0 renal
[8] = system: SN12C renal
[9] = system: UACC-62 melanoma
[10] = system: SK-OV-3 ovarian
[11] = system: IGROV1 ovarian
[12] = system: HS 578T breast
[13] = system: A549 NSCLC
[14] = system: NCI-H226 lung
[15] = system: MALME-3M melanoma
[16] = system: NCI-H23 lung
[17] = system: OVCAR-8 ovarian
[18] = system: MCF7 breast
[19] = system: SW-620 colon
[20] = system: CCRF-CEM leukemia
[21] = system: A498 renal
[22] = system: SK-MEL-28 melanoma
[23] = system: SF-539 CNS
[24] = system: DU-145 prostate
[25] = system: TK-10 renal
[26] = system: K-562 leukemia
[27] = system: HL-60(TB) leukemia
[28] = system: LOX IMVI melanoma
[29] = system: EKVX NSCLC
[30] = system: MDA-MB-468 breast
[31] = system: SK-MEL-5 melanoma
[32] = system: MOLT-4 leukemia
[33] = system: HOP-92 NSCLC
[34] = system: SF-295 CNS
[35] = system: NCI-H522 lung
[36] = system: HOP-62 NSCLC
[37] = system: SK-MEL-2 melanoma
[38] = system: UO-31 renal
[39] = system: MDA-MB-231 breast
[40] = system: OVCAR-4 ovarian
[41] = system: CAKI-1 renal
[42] = system: SNB-19 CNS
[43] = system: PC-3 prostate
[44] = system: NCI/ADR-RES ovarian
[45] = system: HT29 colon
[46] = system: M14 melanoma
[47] = system: HCC-2998 colon
[48] = system: SR leukemia
[49] = system: OVCAR-5 ovarian
[50] = system: HCT-15 colon
[51] = system: ACHN renal
[52] = system: KM12 colon
[53] = system: SNB-75 CNS
[54] = system: T-47D breast
[55] = system: NCI-H460 lung
[56] = system: U251 CNS
[57] = system: RXF 393 renal
[58] = system: RPMI-8226 leukemia
[59] = system: MDA-MB-435

Which results are given for `O=C(/C=C/Nc1ccc(Cl)cc1)c1ccc2c(c1)Nc1ccccc1S2`?
GI50 [1]: 11.9 µM; TGI [1]: 28.6 µM; GI50 [2]: 18.7 µM; TGI [2]: 59.9 µM; GI50 [3]: 9.67 µM; TGI [3]: 33.8 µM; GI50 [4]: 6.05 µM; TGI [4]: 25.1 µM; GI50 [5]: 11.4 µM; TGI [5]: 30.5 µM; GI50 [6]: 10.3 µM; TGI [6]: 29.9 µM; GI50 [7]: 11 µM; TGI [7]: 23.3 µM; GI50 [8]: 13.7 µM; TGI [8]: 66.5 µM; GI50 [9]: 10.2 µM; TGI [9]: 25.7 µM; GI50 [10]: 12.9 µM; TGI [10]: 29.5 µM; GI50 [11]: 13.2 µM; TGI [11]: 34.6 µM; GI50 [12]: 3.42 µM; TGI [12]: 19 µM; GI50 [13]: 6.43 µM; TGI [13]: 23.9 µM; GI50 [14]: 11.6 µM; TGI [14]: 37 µM; GI50 [15]: 11.4 µM; TGI [15]: 24.7 µM; GI50 [16]: 5.34 µM; TGI [16]: 20.4 µM; GI50 [17]: 4.38 µM; TGI [17]: 17.8 µM; GI50 [18]: 6.64 µM; TGI [18]: 23.9 µM; GI50 [19]: 10.2 µM; TGI [19]: 24.7 µM; GI50 [20]: 16.9 µM; TGI [20]: 69.2 µM; GI50 [21]: 18.4 µM; TGI [21]: 42.5 µM; GI50 [22]: 24 µM; TGI [22]: 79.1 µM; GI50 [23]: 8.84 µM; TGI [23]: 21.5 µM; GI50 [24]: 8.43 µM; TGI [24]: 27.7 µM; GI50 [25]: 13.3 µM; TGI [25]: 28.8 µM; GI50 [26]: 18.5 µM; TGI [26]: > 100 µM; GI50 [27]: 69.8 µM; TGI [27]: > 100 µM; GI50 [28]: 10.1 µM; TGI [28]: 23.7 µM; GI50 [29]: 14.6 µM; TGI [29]: 36.8 µM; GI50 [30]: 3.44 µM; TGI [30]: 14.1 µM; GI50 [31]: 12.4 µM; TGI [31]: 28.4 µM; GI50 [32]: 17.6 µM; TGI [32]: > 100 µM; GI50 [33]: 12.6 µM; TGI [33]: 29.9 µM; GI50 [34]: 4.19 µM; TGI [34]: 17.1 µM; GI50 [35]: 5.1 µM; TGI [35]: 23.9 µM; GI50 [36]: 4.15 µM; TGI [36]: 17.1 µM; GI50 [37]: 13.6 µM; TGI [37]: 32.8 µM; GI50 [38]: 16.9 µM; TGI [38]: 34.3 µM; GI50 [39]: 13.3 µM; TGI [39]: 27.9 µM; GI50 [40]: 2.84 µM; TGI [40]: 10.4 µM; GI50 [41]: 10.1 µM; TGI [41]: 24.6 µM; GI50 [42]: 12.2 µM; TGI [42]: 29.3 µM; GI50 [43]: 7.55 µM; TGI [43]: 25.1 µM; GI50 [44]: 5.71 µM; TGI [44]: 20.1 µM; GI50 [45]: 13.1 µM; TGI [45]: 32 µM; GI50 [46]: 14.6 µM; TGI [46]: 40.2 µM; GI50 [47]: 13.2 µM; TGI [47]: 36.8 µM; GI50 [48]: 21.2 µM; TGI [48]: > 100 µM; GI50 [49]: 15.9 µM; TGI [49]: 68.2 µM; GI50 [50]: 14.9 µM; TGI [50]: > 100 µM; GI50 [51]: 11 µM; TGI [51]: 27.8 µM; GI50 [52]: 14.6 µM; TGI [52]: 55.2 µM; GI50 [53]: 1.96 µM; TGI [53]: 6.85 µM; GI50 [54]: 12.9 µM; TGI [54]: 56.4 µM; GI50 [55]: 3.77 µM; TGI [55]: 14.7 µM; GI50 [56]: 6.88 µM; TGI [56]: 21.3 µM; GI50 [57]: 14.4 µM; TGI [57]: 30.5 µM; GI50 [58]: 17.7 µM; TGI [58]: > 100 µM; GI50 [59]: 11.3 µM; TGI [59]: 39.4 µM
